Entries after “also recorded” stand apart in the source; their conditions may differ. Read-outs that look alike come from different tables or passages of the source.
Tests used:
fVIIa-sTF [1] = conditions: P1 moiety; cited from earlier work
Text: We have detected aeruginosins 98A (36) and B (37) from M. aeruginosa NIES-98. The MeOH fractions from the aforementioned cyanobacteria are not active in the fVIIa-sTF assay. Thus, from our readings, we compare the fVIIa-sTF inhibitory activity of aeruginosins to phenylamidine. […] The presence of the cyclic amino alcohol moiety in aeruginosins may contribute to efficient binding against fVIIa. However, this hypothesis needs to be established by a structure–ac ...

fVIIa [2] = target: T1, fVIIa (Homo sapiens, UniProt P08709); test: fVIIa inhibitory assay (cephalin buffer, without sTF); assay type: biochemical; conditions: for fVIIa inhibition, slow binding, in words: 10 and 1 µg/mL, L-α-cephalin buffer, without sTF, three to six hours; for fVIIa inhibitory activity, in words: concentration not given
T1 construct: purchased Enzyme Research Laboratories, South Bend, IN, USA HFVIIa
T1 sequence (P08709 213-466): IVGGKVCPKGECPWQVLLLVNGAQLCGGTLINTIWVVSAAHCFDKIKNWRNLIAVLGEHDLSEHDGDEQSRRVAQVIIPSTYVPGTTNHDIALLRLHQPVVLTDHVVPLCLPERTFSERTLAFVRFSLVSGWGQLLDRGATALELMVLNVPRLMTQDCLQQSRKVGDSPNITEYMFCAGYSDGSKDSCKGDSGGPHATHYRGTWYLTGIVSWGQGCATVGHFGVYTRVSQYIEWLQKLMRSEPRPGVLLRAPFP
T1 sequence (P08709 61-212): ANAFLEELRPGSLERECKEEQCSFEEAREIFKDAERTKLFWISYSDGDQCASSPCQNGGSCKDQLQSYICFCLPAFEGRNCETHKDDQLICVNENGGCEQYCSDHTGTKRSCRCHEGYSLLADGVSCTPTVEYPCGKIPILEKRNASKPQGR
Procedure: (§1) All assay experiments were done in a cold condition at 4 °C using an ice bucket until pre-incubation and reaction at 37 °C.
(§2) The fVIIa and fVIIa-sTF assays used L-α-cephalin buffer solution. The fVIIa-sTF assay was performed following the procedure by Nakagura et al. with modification. The L-α-cephalin as buffer solution was prepared as follows: Buffer (A): Five hundred milliliters (500 mL) of water was added to 6.057 g of Tris (hydroxymethyl)aminomethane (Nacalai Tesque, Kyoto, Japan) to make 100 mM Tris-HCl solution; 4.383 g NaCl (Nacalai Tesque) was added to the resulting solution to make […], and 500 mg bovine serum albumin (BSA) (Sigma, A7284, St. Louis, MO, USA) was added. The pH was adjusted to 7.40; Buffer (B): A 200 mL of Buffer A was added to 0.3329 g of CaCl2 (Nacalai Tesque). The resulting solution (Buffer B) was adjusted to pH 7.48 before it was stored at 4 °C in preparation for the next day experiment. A 30 µg/mL 3-sn-phosphatidylethanolamine from the bovine brain (Sigma, USA) or L-α-cephalin was added to Buffer B on the day of the experiment.
The 80 µL 3-sn-phosphatidylethanolamine buffer, 50 µL of […] fVIIa enzyme in a buffer, and 20 µL of sample solution were dispensed in each well of a 96-well plate (Iwaki: 3881-096, Tokyo, Japan). The 96-well plate with the solution was pre-incubated at 37 °C for 5 min separately together with 1 mM of Chromozyme t-PA (N-Methylsulfonyl-D-Phe-Gly-Arg-4-nitranilide acetate), from Roche Diagnostics (Mannheim, Germany), dissolved in water as a substrate. The 50 µL of the substrate was added, and the mixture was agitated to start the reaction.
(§3) The human factor VIIa (HFVIIa) enzyme, purchased from Enzyme Research Laboratories, South Bend, IN, USA, was added and adjusted with 20 mM Tris-HCl/0.1 M NaCl/pH 7.4. The final enzyme concentration should be 95.06 µg/mL. The 100 µL enzyme solutions were stored in plastic cryogenic vials (Iwaki: 2712-002, Tokyo, Japan) at −80 °C until use. The fVIIa enzyme, 95.06 µg/mL, and 100 µL volume solution was added to 7.822 mL of 3-sn-phosphatidylethanolamine buffer on the assay preparation.

fVIIa-sTF [3] = test: fVIIa-sTF inhibitory assay; assay type: biochemical, human
Procedure: as §1, §2
The same buffer preparation for fVIIa assay was used for the fVIIa-sTF inhibitory assay. The fVIIa: sTF ratio was 0.30 µg/mL: 0.39 µg/mL, and was prepared in Section 3.3.2.
as §3
The sTF or Recombinant Human Soluble Tissue Factor (F3-28H) or Human F3 was purchased from Creative Biomart, Shirley, NY, USA. The sTF was added with 10 mM PBS, pH 7.4, to make […] (25.624 µg/mL), and transferred in 300 µL volumes in plastic cryogenic vials (Iwaki: 2712-002, Tokyo, Japan), stored at −80 °C until use. The sTF solution (25.624 µg/mL, 300 µL) was added to 4.7 mL of the 3-sn-phosphatidylethanolamine buffer in an amber bottle before use.
The 30 µL buffer, 100 µL fVIIa-sTF, and 20 µL sample solutions were added to a well in a 96-well plate. The solution was pre-incubated at 37 °C for 5 min, together with 1 mM Chromozym t-PA in water as a substrate. A 50-µL substrate was added to start the reaction, agitated, and the absorbance was monitored at 405 nm using Thermo Scientific Multiskan FC microplate photometer.

thrombin = thrombin (Homo sapiens, UniProt P00734); test: Thrombin inhibitory assay; assay type: biochemical
fVIIa [4] = conditions: cited from earlier work

Molecule: N=C(N)c1ccccc1 [phenylamidine]
- fVIIa-sTF inhibitory activity, in words (fVIIa-sTF [1]): inhibitory activity against fVIIa-sTF

Molecule: aeruginopeptin 228-B [Compound 3]
- fVIIa inhibition, slow binding, in words (fVIIa [2]): active against fVIIa with slow binding and inhibition from three to six hours

Molecule: aeruginosin K139 [Compound 30]
- active compound attributed by LC-MS in fVIIa-sTF active fraction (fVIIa-sTF [3]; dereplication by LC-MS of active fraction, not tested as pure compound): active component; also recorded: active compound
- fVIIa inhibitory activity, in words (fVIIa [2]): dual inhibitory activity
- thrombin inhibitory activity, in words (thrombin; aeruginosins or MeOH fractions, concentration not given): dual inhibitory activity

Molecule: microcystin-LR [Compound 18, reference compound]
- fVIIa-sTF inhibition, in words (fVIIa-sTF [3]): not active

Molecule: microcystin-RR [Compound 19, reference compound]
- fVIIa-sTF inhibition, in words (fVIIa-sTF [3]): not active

Molecule: microcystin-YR [Compound 20, reference compound]
- fVIIa-sTF inhibition, in words (fVIIa-sTF [3]): not active

Molecule: oscillapeptilide 97A [Compound 11]
- fVIIa inhibition, slow binding, in words (fVIIa [2]): active against fVIIa with slow binding and inhibition from three to six hours

Molecule: oscillapeptin G [Compound 10]
- fVIIa inhibition, slow binding, in words (fVIIa [2]): active against fVIIa with slow binding and inhibition from three to six hours

Molecule: oscillarin
- fVIIa inhibition, in words (fVIIa [4]): fVIIa and thrombin inhibitors

Molecule: spumigins A [Compound 21]
- fVIIa-sTF inhibition, in words (fVIIa-sTF [3]; pure compounds or compound class): do not inhibit
- fVIIa inhibitory activity, in words (fVIIa [2]): do not inhibit
- thrombin inhibition, in words (thrombin; 100 µg/mL, after a long-term storage): active
